Several values for one entry are separate records, joined by “and”; a condition that tells them apart may be missing. Identical values can stand only once. Each block holds one compound with its values, some of them ahead of it.
Tested on: 922993-354-T-J3-PDC complex spheroids, viability, % test/control
Assay: Anticancer human tumor 922993-354-T-J3-PDC patient-derived endometrial carcinoma cell line growth inhibition [CLK]
Settings: for viability, T/C: stronger effect = lower value
Source text: A high-throughput screen of multi-cell type tumor spheroids was designed to identify active combinations of […] and targeted small molecules. Complex spheroids include a stromal component modeled by human endothelial cells (HUVEC) and fibroblasts modeled by human mesenchymal stem cells (MSCs). The concentration ranges selected for each drug and investigational agent were based upon clinically achievable concentrations if the clinical Cmax of the agent was known.
Compounds. The drugs and investigational agents: cirtuvivint (SM08502; NSC835563), CC-671 (NSC850746), vemurafenib (NSC761431), tapotoclax (NSC804041), sotorasib (NSC818433), adagrasib (NSC831453), MRTX-1133 (NSC836407), BAY2416964 (NSC825713), copanlisib (NSC816437), inavolisib (NSC800729), abemaciclib (NSC768073), osimertinib (NSC779217), entinostat (NSC756642), eltanexor (KPT-8602, NSC794443), venetoclax (NSC766270), ceralasertib (NSC777638), bortezomib (NSC756655), olaparib (NSC753686), talazoparib (NSC767125), alisertib (NSC759677), peposertib (NSC802822), gemcitabine (NSC613327), 5-fluorouracil (NSC19893), SN-38 (NSC673596), oxaliplatin (NSC266046), paclitaxel (NSC125973), and doxorubicin (NSC123127), were obtained from the National Cancer Institute (NCI) Developmental Therapeutics Program Chemical Repository. The FDA-approved anticancer drug set is available from the Developmental Therapeutics Program at https://dtp.cancer.gov/organization/dscb/obtaining/available plates.htm. […] The stock solutions were prepared in dimethyl sulfoxide (DMSO, Sigma-Aldrich, St. Louis, MO, cat. D2650), except for the platinum complexes which were prepared in saline (Quality Biological, Gaithersburg, MD, cat. 114-055-101), at 800-fold the tested concentration and stored at -70 degrees C prior to their use. All drugs and investigational agents were tested over a range starting from a high concentration at or near the clinical Cmax and decreasing in half-log increments. If the clinical Cmax for an agent had not been determined, the highest concentration tested was 10 microM.
Cell Culture. All cells were maintained in an incubator at 37 degrees C and 5% CO2 with 95% humidity. The PDC lines were cultured according to standard operating procedures established by the NCI PDMR. Briefly, all PDCs were thawed and cultured in Matrigel-coated flasks prepared with a working solution of 1X Ham's F-12 nutrient mix, without supplementation (Invitrogen, Waltham, MA, cat. 11765054), 100 U/mL penicillin-streptomycin (Invitrogen, cat. 15140122), and 2.5% Matrigel (Corning Inc., Corning, NY, cat. 354248) for the first three passages. The 947758-054-R-J2-PDC line was cultured in 6B/Colon 1A media, which includes advanced DMEM/F-12 (Thermo Fisher Scientific, cat. 12634028), 10 mM HEPES (Thermo Fisher Scientific, cat. 15630080), 1X GlutaMAX supplement (Thermo Fisher Scientific, cat. 35050061), 0.1 mg/mL primocin (InvivoGen, cat. ant-pm-2), 10% defined fetal bovine serum, heat inactivated (HyClone Laboratories Inc., cat. SH30070.03HI), 1.25 mM N-Acetyl-L-cysteine (Sigma-Aldrich, cat. A9165), 10 mM nicotinamide (Sigma-Aldrich, cat. N0636), 1X B-27 supplement (Thermo Fisher Scientific, cat. 17504044), 1X N-2 supplement (Thermo Fisher Scientific, cat. 17502048), and 10 microM Y-27632 dihydrochloride (Tocris Bioscience, cat. 1254). The 876862-298-R-J1-PDC was cultured in 6E media, which includes all 6B/Colon 1A media components plus 50% L-WRN conditioned media (ATCC, cat. CRL-3276), 50 ng/mL recombinant human EGF recombinant protein (hEGF; Thermo Fisher Scientific, cat. PHG0311), 10 ng/mL recombinant human fibroblast growth factor 10 (hGFG-10; PeproTech, cat. 100-26), 1 ng/mL recombinant human fibroblast growth factor 2 (hFGF-2; PeproTech, cat. 100-18B), and 1 µM prostaglandin E2 (PGE2; Tocris, cat. 2296). The 227483-062-R1-J1-PDC line was cultured in Panc media, containing all 6E components except hFGF-2, with the addition of 500 nM SB-431542 (Selleckchem, cat. S1067) and 10 nM gastrin (Tocris, cat. 3006). […]
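Further: spheroids exposed to the agents for 7 days before readout.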

IC50 (compound alone, run of 09/18/2023): 266 nM [middle of 12 runs]
SMILES: CN1CCN(c2cc(C(=O)Nc3cc4cc(-c5cnn(C)c5)ccc4cn3)ccn2)CC1
viability, T/C (compound 0.1 µM): 97.6% [middle of 12 runs]
viability, T/C (compound 1 µM): 1.97% [middle of 12 runs]
viability, T/C (compound 3.16 µM): 0.81% [middle of 12 runs]
viability, T/C (compound 10 µM): 0.24% [middle of 12 runs]

IC50 (curve of compound): > 10 µM
SMILES: COc1ccc([C@@H](O)c2cc(-c3ncnc4cc(N5CCOCC5)ccc34)c(F)cc2Cl)nn1
viability, T/C (compound 0.0316 µM): 87.2% and 87.1%
viability, T/C (compound 0.1 µM): 104% and 94.9%
viability, T/C (compound 0.316 µM): 87.7% and 98.9%
viability, T/C (compound 1 µM): 113% and 98.2%
viability, T/C (compound 3.16 µM): 85.8% and 117%
viability, T/C (compound 10 µM): 82.8% and 89.9%

IC50 (curve of compound): 1.91 µM and 2.33 µM
SMILES: COc1cccc2c1C(=O)c1c(O)c3c(c(O)c1C2=O)CC(O)(C(=O)CO)CC3OC1CC(N)C(O)C(C)O1 (stereo unspecified)
viability, T/C (compound 0.0316 µM): 92.5% and 100%
viability, T/C (compound 0.1 µM): 97.2% and 86%
viability, T/C (compound 0.316 µM): 91.5% and 102%
viability, T/C (compound 1 µM): 63.7% and 75.1%
viability, T/C (compound 3.16 µM): 38.8% and 41.3%
viability, T/C (compound 10 µM): 13.7% and 21.8%

SMILES: C=CC(=O)N1CCN(c2nc(=O)n(-c3c(C)ccnc3C(C)C)c3nc(-c4c(O)cccc4F)c(F)cc23)C(C)C1 (stereo unspecified) + CN1CCN(c2cc(C(=O)Nc3cc4cc(-c5cnn(C)c5)ccc4cn3)ccn2)CC1
IC50 (curve of first compound, second compound 0.0316 µM): > 10 µM
IC50 (curve of first compound, second compound 0.1 µM): > 10 µM
IC50 (curve of first compound, second compound 0.316 µM): 0.0433 µM
IC50 (curve of first compound, second compound 1 µM): < 0.0316 µM
IC50 (curve of first compound, second compound 3.16 µM): < 0.0316 µM
IC50 (curve of first compound, second compound 10 µM): < 0.0316 µM
viability, T/C (second compound 0.0316 µM, first compound 0.0316 µM): 121%
viability, T/C (second compound 0.0316 µM, first compound 0.1 µM): 123%
viability, T/C (second compound 0.0316 µM, first compound 0.316 µM): 132%
viability, T/C (second compound 0.0316 µM, first compound 1 µM): 116%
viability, T/C (second compound 0.0316 µM, first compound 3.16 µM): 112%
viability, T/C (second compound 0.0316 µM, first compound 10 µM): 112%
viability, T/C (second compound 0.1 µM, first compound 0.0316 µM): 105%
viability, T/C (second compound 0.1 µM, first compound 0.1 µM): 98.6%
viability, T/C (second compound 0.1 µM, first compound 0.316 µM): 114%
viability, T/C (second compound 0.1 µM, first compound 1 µM): 91.6%
viability, T/C (second compound 0.1 µM, first compound 3.16 µM): 106%
viability, T/C (second compound 0.1 µM, first compound 10 µM): 90.1%
viability, T/C (second compound 0.316 µM, first compound 0.0316 µM): 50.9%
viability, T/C (second compound 0.316 µM, first compound 0.1 µM): 48.5%
viability, T/C (second compound 0.316 µM, first compound 0.316 µM): 43.5%
viability, T/C (second compound 0.316 µM, first compound 1 µM): 37.8%
viability, T/C (second compound 0.316 µM, first compound 3.16 µM): 41.4%
viability, T/C (second compound 0.316 µM, first compound 10 µM): 47.4%
viability, T/C (second compound 1 µM, first compound 0.0316 µM): 0.19%
viability, T/C (second compound 1 µM, first compound 0.1 µM): 0.68%
viability, T/C (second compound 1 µM, first compound 0.316 µM): 0.16%
viability, T/C (second compound 1 µM, first compound 1 µM): 0.93%
viability, T/C (second compound 1 µM, first compound 3.16 µM): 0.13%
viability, T/C (second compound 1 µM, first compound 10 µM): 0.12%
viability, T/C (second compound 3.16 µM, first compound 0.0316 µM): 0.13%
viability, T/C (second compound 3.16 µM, first compound 0.1 µM): 0.17%
viability, T/C (second compound 3.16 µM, first compound 0.316 µM): 1.53%
viability, T/C (second compound 3.16 µM, first compound 1 µM): 0.1%
viability, T/C (second compound 3.16 µM, first compound 3.16 µM): 0.14%
viability, T/C (second compound 3.16 µM, first compound 10 µM): 1.14%
viability, T/C (second compound 10 µM, first compound 0.0316 µM): 0.16%
viability, T/C (second compound 10 µM, first compound 0.1 µM): 0.18%
viability, T/C (second compound 10 µM, first compound 0.316 µM): 0.17%
viability, T/C (second compound 10 µM, first compound 1 µM): 0.15%
viability, T/C (second compound 10 µM, first compound 3.16 µM): 0.79%
viability, T/C (second compound 10 µM, first compound 10 µM): 0.2%

From PubChem BioAssay AID2060606 (Molecular Pharmacology Branch, DTP, NCI, 2025)
